Test results reported in US12606541B2, “PPARg modulators and methods of use” (Eisai R&D Management Co., Ltd., priority 2020, dated 2026).
Where two headings read alike, the source gives them in different places.

Legend:
[1] = target: T1, His6-TEV-PPARγ-(234-505) (Homo sapiens, UniProt P37231); experiment: TR-FRET Assay to Measure Co-R Peptide Recruitment to PPARγ; assay type: biochemical; conditions: Co-R peptide (SMRT-ID2) recruitment; top final concentration 20 μM; read-out: TR-FRET i-Ag; AC50
T1 construct: The His6-TEV-PPARγ-(234-505) protein for assay was expressed and purified; TEV cleavage site (N); made in house
T1 sequence (P37231 234-505): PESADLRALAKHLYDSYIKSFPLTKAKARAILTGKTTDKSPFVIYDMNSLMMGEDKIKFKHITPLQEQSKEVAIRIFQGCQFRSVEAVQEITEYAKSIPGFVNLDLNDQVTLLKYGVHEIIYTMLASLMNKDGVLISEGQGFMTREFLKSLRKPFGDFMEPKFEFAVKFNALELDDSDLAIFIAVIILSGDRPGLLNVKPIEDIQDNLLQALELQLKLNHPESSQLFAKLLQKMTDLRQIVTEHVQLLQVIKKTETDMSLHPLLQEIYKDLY
In short: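 Corepressor recruitment is measured by adding terbium-labeled anti-His antibody and FITC SMRT-ID2 peptide, at 5 and 200 nM final, after a 20-minute room-temperature protein–compound incubation. After one further hour, signal is converted to percent response between DMSO and 500 nM T0070907 wells.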

[2] = system: UM-UC-9 engineered cells; experiment: Cell proliferation / short-term viability assay, CellTiter-Glo 144 h; assay type: cell-based, human; conditions: read-out: CTGlo 144 h UMUC9.5, G150
In short: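 Viability read by CellTiter-Glo 2.0 luminescence at day 7 versus DMSO-vehicle wells and a T0 plate measured on day 0. Cells: UM-UC-9 engineered assay-ready stocks, 500 cells/well in high-glucose DMEM with 10% FBS, 37° C, 5% CO2.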

Row | SMILES | AC50 [1] [nM] | IC50 ([2]; Homo sapiens, UM-UC-9, 144 h) [nM] | IC50 [2] [nM]
1 | CO[C@]1(C(F)(F)F)CC[C@H](NC(=O)[C@@H]2CCN(C(=O)c3cc(-c4cc(C)ncn4)[nH]n3)C3(CC3)C2)CC1 (single isomer, unassigned) [Example 309-D] | 1320 | 3680 | –
2 | COc1cc(-c2cc(C(=O)N3CC[C@H](C(=O)NCC45CCC(O)(CC4)CC5)CC34CC4)n[nH]2)c(F)cn1 (single isomer, unassigned) [Example 313-B] | 3.5 | 13.9 | –
3 | COc1cc(-c2cc(C(=O)N3CCC(C(=O)NCC45CCC(O)(CC4)C5)CC34CC4)n[nH]2)c(F)cn1 (single isomer, unassigned) [Example 333-A] | 1960 | – | 9440
4 | COc1cc(-c2cc(C(=O)N3CCC(C(=O)NC4CCC(O)(C(F)(F)F)CC4)CC34CC4)n[nH]2)ncn1 (single isomer, unassigned) [Example 338-A] | 9.3 | – | 16.2
5 | COc1cc(-c2cc(C(=O)N3CCC(C(=O)NC4CCC(O)(C(F)(F)F)CC4)CC34CC4)n[nH]2)ncn1 (single isomer, unassigned) [Example 338-B] | 723 | – | 1320
6 | Cc1cc(-c2cc(C(=O)N3CCC(C(=O)NC4CCC(O)(C(F)(F)F)CC4)CC34CC4)n[nH]2)ncn1 (single isomer, unassigned) [Example 339-A] | 476 | – | 3800
7 | COc1cc(-c2cc(C(=O)N3CCC(C(=O)NC4CCC(OCC(C)OC)(C(F)(F)F)CC4)CC34CC4)n[nH]2)c(F)cn1 (single isomer, unassigned) [Example 340-A] | 6.5 | – | 4.4
8 | COc1cc(-c2cc(C(=O)N3CCC(C(=O)NCC4CCn5c(C)nnc5C4)CC34CC4)n[nH]2)c(F)cn1 (single isomer, unassigned) [Example 346-A] | 504 | – | 2790
9 | COc1cc(-c2cc(C(=O)N3CCC(NC(=O)C4CCC(O)(C(F)(F)F)CC4)CC34CC4)n[nH]2)c(F)cn1 (single isomer, unassigned) [Example 347-A] | 81.6 | – | 396
10 | COc1cc(-c2cc(C(=O)N3CCC(NC(=O)C4CCC(O)(C(F)(F)F)CC4)CC34CC4)n[nH]2)c(F)cn1 (single isomer, unassigned) [Example 347-B] | 198 | – | 600
11 | COc1cc(-c2cc(C(=O)N3CCC(NC(=O)C4CCC(O)(C(F)(F)F)CC4)CC34CC4)n[nH]2)c(F)cn1 (single isomer, unassigned) [Example 347-C] | 5080 | – | > 10000
12 | COc1cc(-c2cc(C(=O)N3CCC(NC(=O)C4CCC(O)(C(F)(F)F)CC4)CC34CC4)n[nH]2)c(F)cn1 (single isomer, unassigned) [Example 347-D] | ≥ 20000 | – | > 10000
13 | COc1cc(-c2cc(C(=O)N3CCC(C(=O)NC4CC(N5CCC(F)(F)C5)C4(C)C)CC34CC4)n[nH]2)c(F)cn1 (single isomer, unassigned) [Example 355-A] | 10.4 | – | 3.5
14 | COc1cc(-c2cc(C(=O)N3CCC(C(=O)NC4CCC(O)(C(F)(F)F)CC4)CC3C(F)(F)F)n[nH]2)c(F)cn1 (single isomer, unassigned) [Example 367-A] | 56.7 | – | 161
15 | COc1cc(-c2cc(C(=O)N3CCC(C(=O)NC4CCC(O)(C(F)(F)F)CC4)CC3C(F)(F)F)n[nH]2)c(F)cn1 (single isomer, unassigned) [Example 367-B] | 12.7 | – | 6.8
16 | COc1cc(-c2cc(C(=O)N3CC[C@H](C(=O)NC4CCC5CCCN5C4)CC34CC4)n[nH]2)c(F)cn1 (single isomer, unassigned) [Example 376-A] | 897 | – | 1730
17 | COc1cc(-c2cc(C(=O)N3CC[C@H](C(=O)NC4CCC5CCCN5C4)CC34CC4)n[nH]2)c(F)cn1 (single isomer, unassigned) [Example 376-B] | 1600 | – | 3880
18 | COc1cc(-c2cc(C(=O)N3CC[C@H](C(=O)NC4CCC5CCCN5C4)CC34CC4)n[nH]2)c(F)cn1 (single isomer, unassigned) [Example 376-C] | 19.2 | – | 23.6
19 | COc1cc(-c2cc(C(=O)N3CC[C@H](C(=O)NC4CCC(N)(C(F)(F)F)CC4)CC34CC4)n[nH]2)c(F)cn1 (single isomer, unassigned) [Example 399-A] | 298 | 176 | –
20 | COc1cc(-c2cc(C(=O)N3CCC(C(=O)NC4CCC(O)(C(F)(F)F)CC4)CC3(C)C)n[nH]2)c(F)cn1 (single isomer, unassigned) [Example 407-A] | 16 | – | 14
21 | COc1cc(-c2cc(C(=O)N3CC[C@H](C(=O)NC(C)C45CCC(O)(CC4)CC5)CC34CC4)n[nH]2)c(F)cn1 (single isomer, unassigned) [Example 411-A] | 160 | – | 527

Second part, led by results:

Row | AC50 [1] [nM] | SMILES | IC50 ([2]; Homo sapiens, UM-UC-9, 144 h) [nM] | IC50 [2] [nM]
22 | 720 | CO[C@]1(C(F)(F)F)CC[C@@H](NC(=O)[C@@H]2CCN(C(=O)c3cc(-c4cc(C)ncn4)[nH]n3)C3(CC3)C2)CC1 (single isomer, unassigned) [Example 309-C] | 6200 | –
23 | 172 | CCO[C@]1(C(F)(F)F)CC[C@@H](NC(=O)[C@@H]2CCN(C(=O)c3cc(-c4cc(OC)ncc4F)[nH]n3)C3(CC3)C2)CC1 (single isomer, unassigned) [Example 312-A] | 493 | –
24 | 2.5 | CCO[C@]1(C(F)(F)F)CC[C@@H](NC(=O)[C@H]2CCN(C(=O)c3cc(-c4cc(OC)ncc4F)[nH]n3)C3(CC3)C2)CC1 (single isomer, unassigned) [Example 312-B] | 1.8 | –
25 | 1290 | COc1cc(-c2cc(C(=O)N3CC[C@@H](C(=O)NCC45CCC(O)(CC4)CC5)CC34CC4)n[nH]2)c(F)cn1 (single isomer, unassigned) [Example 313-A] | 3890 | –
26 | 6.7 | COc1cc(-c2cc(C(=O)N3CCC(C(=O)NCC45CCC(O)(CC4)C5)CC34CC4)n[nH]2)c(F)cn1 (single isomer, unassigned) [Example 333-B] | – | 33.2
27 | 6.9 | Cc1cc(-c2cc(C(=O)N3CCC(C(=O)NC4CCC(O)(C(F)(F)F)CC4)CC34CC4)n[nH]2)ncn1 (single isomer, unassigned) [Example 339-B] | – | 19.5
28 | 19 | COc1cc(-c2cc(C(=O)N3CCC(C(=O)NC4CCC(OCC(C)OC)(C(F)(F)F)CC4)CC34CC4)n[nH]2)c(F)cn1 (single isomer, unassigned) [Example 340-B] | – | 10.7
29 | 6.1 | COc1cc(-c2cc(C(=O)N3CCC(C(=O)NCC4CCc5[nH]ncc5C4)CC34CC4)n[nH]2)c(F)cn1 (single isomer, unassigned) [Example 341-A] | – | 6.6
30 | 8.1 | COc1cc(-c2cc(C(=O)N3CCC(C(=O)NCC4CCc5[nH]ncc5C4)CC34CC4)n[nH]2)c(F)cn1 (single isomer, unassigned) [Example 341-B] | – | 12.2
31 | 50.8 | COc1cc(-c2cc(C(=O)N3CCC(C(=O)NCC4CCn5cncc5C4)CC34CC4)n[nH]2)c(F)cn1 (single isomer, unassigned) [Example 342-A] | – | 1210
32 | 42.8 | COc1cc(-c2cc(C(=O)N3CCC(C(=O)NCC4CCn5cncc5C4)CC34CC4)n[nH]2)c(F)cn1 (single isomer, unassigned) [Example 342-B] | – | 682
33 | 1120 | COc1cc(-c2cc(C(=O)N3CCC(C(=O)NCC4CCn5c(C)nnc5C4)CC34CC4)n[nH]2)c(F)cn1 (single isomer, unassigned) [Example 346-B] | – | 2410
34 | 9.4 | COc1cc(-c2cc(C(=O)N3CCC(C(=O)NC4CC(N5CCC(F)(F)C5)C4(C)C)CC34CC4)n[nH]2)c(F)cn1 (single isomer, unassigned) [Example 355-B] | – | 3.3
35 | 3.4 | COc1cc(-c2cc(C(=O)N3CC[C@H](C(=O)NC4CCC(O)(C(C)(F)F)CC4)CC34CC4)n[nH]2)c(F)cn1 (single isomer, unassigned) [Example 375-A] | – | 1.3
36 | 129 | COc1cc(-c2cc(C(=O)N3CC[C@H](C(=O)NC4CCC5CCCN5C4)CC34CC4)n[nH]2)c(F)cn1 (single isomer, unassigned) [Example 376-D] | – | 71.4
37 | 671 | COc1cc(-c2cc(C(=O)N3CC[C@H](C(=O)NC(C)c4nnc(C5CC5)o4)CC34CC4)n[nH]2)c(F)cn1 (single isomer, unassigned) [Example 395-B] | 593 | –
38 | 1690 | COc1cc(-c2cc(C(=O)N3CCC(C(=O)NC4CCC(O)(C(F)(F)F)CC4)CC3(C)C)n[nH]2)c(F)cn1 (single isomer, unassigned) [Example 407-B] | – | 1340
39 | 4.5 | COc1cc(-c2cc(C(=O)N3CC[C@H](C(=O)NC4CCC(CO)(C(F)(F)F)CC4)CC34CC4)n[nH]2)c(F)cn1 (single isomer, unassigned) [Example 408-A] | – | 3.9
